In ChEMBL document CHEMBL1126225, “Potential mechanism-based inhibitors of proteolytic enzymes” (Bioorg Med Chem Lett, 1992):

Tests used:
[1] = target: T1, Neutrophil elastase (Homo sapiens) (UniProt P08246); assay: Compound was tested for the inhibition of human leukocyte elastase (HLE) by ratio of Kobs to that of KI
T1 sequence (whole entry): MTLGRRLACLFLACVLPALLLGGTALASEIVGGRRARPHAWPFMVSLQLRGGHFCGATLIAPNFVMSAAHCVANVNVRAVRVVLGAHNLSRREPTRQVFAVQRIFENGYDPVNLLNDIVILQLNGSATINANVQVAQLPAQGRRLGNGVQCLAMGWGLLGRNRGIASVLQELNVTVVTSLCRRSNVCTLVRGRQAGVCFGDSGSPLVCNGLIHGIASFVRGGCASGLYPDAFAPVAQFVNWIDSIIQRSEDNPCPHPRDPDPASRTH

[2] = target: T2, Neutrophil elastase (Homo sapiens, UniProt P08246); assay: Compound was tested for the inhibition of human leukocyte elastase (HLE)
T2 sequence (P08246 whole entry): T1 sequence (whole entry)

[3] = target: T1, Neutrophil elastase (Homo sapiens); assay: Compound was tested for the inhibition of human leukocyte elastase (HLE) by ratio of Kobs to that of KI; Insoluble

SMILES | K obs / 1 [1] [M⁻¹ s⁻¹] | further results
O=C(CN1C(=O)c2ccccc2S1(=O)=O)OCc1ccccc1 | 4 | 
CC(C)C[C@H](NC(=O)OCc1ccccc1)C(=O)CN1C(=O)c2ccccc2S1(=O)=O | 420 | 
CC(C)C[C@H](NC(=O)OCc1ccccc1)C(=O)CN1C(=O)CC(Cc2ccccc2)C1=O (stereo partly drawn) | 3 | 
CC(C)C[C@H](N)C(=O)CN1C(=O)c2ccccc2C1=O |  | Ki [2]: 17.5 µM
CC(C)Cc1ccc(C(C)C(=O)CN2C(=O)CC(Cc3ccccc3)C2=O)cc1 (stereo not drawn) | 45 | 
CC(C)Cc1ccc(C(C)C(=O)CN2C(=O)c3ccccc3S2(=O)=O)cc1 (stereo not drawn) | 160 | 
CC(C)C[C@H](NC(=O)OCc1ccccc1)C(=O)CN1C(=O)c2ccccc2C1=O |  | K obs / 1 [3]: Insoluble
CC(C)Cc1ccc(C(C)C(=O)CN2C(=O)CC(CC(C)C)C2=O)cc1 (stereo not drawn) | 16 | 
